The target of test [1] is T1, GST-TIE2 (intracellular domains of human TIE2) (Homo sapiens, UniProt Q02763).
T1 construct: made in house
The test can be described thus: TIE-2 Enzyme Assay (TIE2-E2), LANCE method. The class given is biochemical. The settings on record: read-out: TIE2 PIC50 TIE2-E2 assay. The method, boiled down:
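GST-tagged human TIE2 intracellular domain (aa 762–1104), preactivated 2 h with 80 μM ATP, then 5 nM enzyme run 2 h at room temperature with 1 μM biotinylated D1–15 peptide, 80 μM ATP, HEPES pH 7.4, 2.4% DMSO. Phosphotyrosine detected by LANCE (Eu anti-pTyr/streptavidin-APC) after EDTA stop; IC50 by nonlinear regression, reported as pIC50.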

Test [2] addresses T2, TIE2 intracellular domain/c-fms extracellular domain (TIE2/c-fms) chimeric protein (Homo sapiens, UniProt Q02763).
T2 construct: fused on or other part: c-fms (CSF1R) extracellular domain in place of TIE2's own ectodomain; it serves as the capture handle for the anti-c-fms ELISA; P07333 (Macrophage colony-stimulating factor 1 receptor)
The test can be described thus: TIE-2 Autophosphorylation Assay (TIE2-C). The class given is cell-based. Particulars: TIE2/c-fms expressing mouse 3T3 cells. The protocol: TIE-2 Autophosphorylation Assay (TIE2-C)
The TIE-2 autophosphorylation assay uses an ELISA method and a TIE2 intracellular domain/c-fms extracellular domain (TIE2/c-fms) chimeric protein expressing mouse 3T3 cell line. This assay measures the autophosphorylation level of TIE2 protein expressed in cells. The cells are cultured in 96 well plates and grown in high glucose DMEM containing 10% serum at 37° C. in a humidified 10% CO2, 90% air incubator. On the day of the assay, the serum containing medium is removed from the cells and replaced with serum free medium for one hour. The test compound (diluted from a 10 mM stock in DMSO, final DMSO concentration is 0.1%) is incubated with TIE2/c-fms expressing cells for 30 minutes in serum free DMEM. Intrinsic cellular dephosphorylation of the receptor is blocked by the addition of the tyrosine phosphatase inhibitor, sodium orthovanadate, from a 100 mM aqueous stock to a final concentration of 1 mM. The culture media is removed by aspiration and the cells incubated for 30 to 60 mins on ice with lysis buffer containing 137 mM NaCl, 2 mM EDTA, 10% glycerol, 1 mM sodium ortho vanadate, 1×tyrosine phosphatase inhibitor cocktail (Sigma) and complete protease inhibitor cocktail (Roche) in 20 mM Tris-HCl (pH8.0). The cell extracts are transferred into Rat anti-c-fms antibody (Zymed-clone 12-2d6) ([…]) coated 96 well plates and incubated for 12 hrs at 4 degrees. The extracts are removed by aspiration and the plate, washed in a buffer comprising PBS, 0.05% Tween-20, 0.05% NP-40 and 5% SuperBlock (Pierce) followed by incubation with an HRP (horseradish peroxidase) conjugated anti-phosphotyrosine antibody, (Upstate Biotech) The plates are again washed with the aforementioned wash buffer and the colorimetric HRP substrate, TMB is added. The reaction progresses for 90 seconds and is stopped with the addition of 2M H2SO4. The optical density at 450 nm derived from HRP catalyzed TMB is measured with a plate reader capable of reading at the appropriate wavelength (e.g. SpectroMax from Molecular Dynamics). The percent inhibition of activity is calculated relative to non-vanadate treated control wells. The concentration of test compound that inhibits 50% of activity (IC50) is interpolated using nonlinear regression (Levernberg-Marquardt) and the equation, y=Vmax (1−x/(K+x))+Y2, where “K” is equal to the IC50.

The target of a further test is T3, GST-VEGFR2 (Homo sapiens, UniProt P35968).
T3 construct: GST-VEGFR2, baculovirus expressed recombinant constructs of the intracellular domains; made in house
T3 sequence (P35968 786-1356 limits assumed): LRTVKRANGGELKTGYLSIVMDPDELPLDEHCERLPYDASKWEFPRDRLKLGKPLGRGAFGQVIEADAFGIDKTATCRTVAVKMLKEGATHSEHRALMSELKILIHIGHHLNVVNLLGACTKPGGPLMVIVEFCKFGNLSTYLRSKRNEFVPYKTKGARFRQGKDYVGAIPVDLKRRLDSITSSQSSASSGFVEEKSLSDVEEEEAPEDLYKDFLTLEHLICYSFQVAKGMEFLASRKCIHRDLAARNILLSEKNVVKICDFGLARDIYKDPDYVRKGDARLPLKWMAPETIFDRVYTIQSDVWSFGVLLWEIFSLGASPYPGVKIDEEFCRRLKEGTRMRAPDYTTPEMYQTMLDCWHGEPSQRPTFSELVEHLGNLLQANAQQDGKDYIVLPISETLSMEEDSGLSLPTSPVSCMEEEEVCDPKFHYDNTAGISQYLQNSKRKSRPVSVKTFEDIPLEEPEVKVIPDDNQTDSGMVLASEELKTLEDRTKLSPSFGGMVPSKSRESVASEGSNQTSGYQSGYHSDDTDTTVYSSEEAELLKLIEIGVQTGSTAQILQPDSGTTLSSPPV
Kind of test: VEGF-R2 Enzyme Assay (VEGF-E2), LANCE method. The class given is biochemical. Particulars: read-out: VEGFR2 PIC50 VEGFR-E2 assay. On the technique in general: In TR-FRET formats the signal depends on donor and acceptor labels being close together.

The target in test [3] is T4, catalytic domain of human VEGFR3 (Homo sapiens, UniProt P35916, H890Q).
T4 construct: made in house; host or cells: Sf9 insect cells (baculovirus, pFastBac1)
T4 sequence (P35916 with tags, fused parts or gaps isoform P35916-1 H890Q): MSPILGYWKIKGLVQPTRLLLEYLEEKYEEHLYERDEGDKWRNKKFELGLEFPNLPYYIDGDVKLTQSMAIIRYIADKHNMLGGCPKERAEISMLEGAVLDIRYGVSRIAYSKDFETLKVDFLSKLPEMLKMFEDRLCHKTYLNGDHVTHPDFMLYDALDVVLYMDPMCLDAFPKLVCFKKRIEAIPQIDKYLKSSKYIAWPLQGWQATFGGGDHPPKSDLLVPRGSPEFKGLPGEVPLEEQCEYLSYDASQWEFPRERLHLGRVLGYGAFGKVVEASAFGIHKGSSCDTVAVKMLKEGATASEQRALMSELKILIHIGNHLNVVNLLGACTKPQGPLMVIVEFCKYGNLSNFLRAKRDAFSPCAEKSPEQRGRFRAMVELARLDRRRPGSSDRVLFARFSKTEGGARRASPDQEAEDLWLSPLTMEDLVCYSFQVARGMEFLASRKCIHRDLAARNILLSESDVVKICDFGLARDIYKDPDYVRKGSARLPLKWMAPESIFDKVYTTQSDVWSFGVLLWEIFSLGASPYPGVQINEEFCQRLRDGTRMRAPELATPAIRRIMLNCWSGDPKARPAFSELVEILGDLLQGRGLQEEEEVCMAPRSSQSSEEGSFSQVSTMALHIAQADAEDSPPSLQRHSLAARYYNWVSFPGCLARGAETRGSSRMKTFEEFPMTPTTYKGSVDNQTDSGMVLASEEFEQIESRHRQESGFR
Kind of test: VEGFR-3 Homogenous Time-Resolved Fluorescence Assay (VEGFR-3-HTRF). The class given is biochemical. Particulars: read-out: VEGFR3 PIC50 VEGFR-3-HTRF assay. The source says: VEGFR—3-Homogenous Time-Resolved Fluorescence Assay (VEGFR-3-HTRF)
This assay assesses Vascular Endothelial Growth Factor 3 (VEGFR3) tyrosine kinase inhibitory activity in substrate phosphorylation assays. The assay examines the ability of small molecule organic compounds to inhibit the tyrosine phosphorylation of a peptide substrate.
The substrate phosphorylation assays use the VEGFR3 catalytic domain, which is expressed in Sf. 9 insect cells as an amino-terminal GST-tagged fusion protein. The catalytic domain of human VEGFR3 (AA residues #819–1298 based upon GenBank Accession #XM003852) is cloned by PCR from human Placenta Marathon Ready cDNA (Clontech). The PCR product is subcloned into pFastBac1 vector containing an N-terminal GST tag. The resulting pFB/GST/VEGFR3icd vector is used to generate a recombinant baculovirus for protein expression. The VEGFR3 catalytic domain translated sequence is:
Autophosphorylation allows enzymes to be fully activated prior to addition to peptide substrates. The assays are performed using enzyme that has been activated by autophosphorylation via preincubation in buffer with ATP and magnesium. Activated enzyme is then diluted and added to titrated compound and the substrate mix.
200 nM VEGFR3 enzyme is activated for 45 minutes at room temperature by incubating the enzyme in buffer containing 100 mM HEPES (pH7.2), 75 μM ATP, 0.3 mM DTT, 0.1 mg/mL BSA, and 10 mM MgCl2. After activation, VEGFR3 is diluted 100-fold into 2× dilution buffer: 200 mM HEPES (pH 7.5), 0.2 mg/mL BSA, 0.6 mM DTT. 20 μL of the diluted enzyme mix is added to 20 μL of 2× substrate mix (150 μM ATP, 20 mM MgCl2, 0.72 μM biotinylated peptide) in the assay plates. Final assay conditions are: 100 mM HEPES (pH 7.2), 75 μM ATP, 10 mM MgCl2, 0.1 mg/mL BSA, 0.3 mM DTT, 0.36 μM biotinylated peptide, and 1 nM VEGFR3 enzyme. Assay plates are incubated for 1.5 hours at room temperature before the addition of 30 μL 100 mM EDTA to the wells to stop the enzymatic reaction. 40 μL/well of HTRF mix are then added to the assay plates for the detection of phosphorylated substrate. Final assay concentrations are: 100 mM HEPES (pH7.2), 0.1 mg/mL BSA, 15 nM streptavidin-labeled allophycocyanin (PerkinElmer), and 1 nM europium-labeled anti-phosphotyrosine antibody (PerkinElmer). Assay plates are left unsealed and are counted in a Wallac Multilabel Counter 1420 (PerkinElmer).
The data for dose responses are plotted as % Control calculated with the data reduction formula 100*(U1–C2)/(C1–C2) versus concentration of compound where U is the unknown value, C1 is the average control value obtained for DMSO , and C2 is the average control value obtained for 0.1M EDTA. Data are fitted to the curve described by: y=((Vmax*x)/(K+x)) where Vmax is the upper asymptote and K is the IC50.

The source of these data is patent US7217710B2, “Substituted pyrazolopyrimidines” (SmithKline Beecham Corporation, priority 2001, dated 2007).

T1 sequence (Q02763 762-1104): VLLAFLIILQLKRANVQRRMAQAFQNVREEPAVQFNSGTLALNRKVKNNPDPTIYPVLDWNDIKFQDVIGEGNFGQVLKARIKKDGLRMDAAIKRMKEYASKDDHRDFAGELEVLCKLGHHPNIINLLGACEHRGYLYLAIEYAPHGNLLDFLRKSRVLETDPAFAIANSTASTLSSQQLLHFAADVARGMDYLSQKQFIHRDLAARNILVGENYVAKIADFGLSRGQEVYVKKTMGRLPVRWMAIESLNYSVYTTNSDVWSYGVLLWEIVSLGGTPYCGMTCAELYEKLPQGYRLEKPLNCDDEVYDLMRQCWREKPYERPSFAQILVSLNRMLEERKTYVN
T2 sequence (Q02763 whole entry, change not shown, the tested form may be a part): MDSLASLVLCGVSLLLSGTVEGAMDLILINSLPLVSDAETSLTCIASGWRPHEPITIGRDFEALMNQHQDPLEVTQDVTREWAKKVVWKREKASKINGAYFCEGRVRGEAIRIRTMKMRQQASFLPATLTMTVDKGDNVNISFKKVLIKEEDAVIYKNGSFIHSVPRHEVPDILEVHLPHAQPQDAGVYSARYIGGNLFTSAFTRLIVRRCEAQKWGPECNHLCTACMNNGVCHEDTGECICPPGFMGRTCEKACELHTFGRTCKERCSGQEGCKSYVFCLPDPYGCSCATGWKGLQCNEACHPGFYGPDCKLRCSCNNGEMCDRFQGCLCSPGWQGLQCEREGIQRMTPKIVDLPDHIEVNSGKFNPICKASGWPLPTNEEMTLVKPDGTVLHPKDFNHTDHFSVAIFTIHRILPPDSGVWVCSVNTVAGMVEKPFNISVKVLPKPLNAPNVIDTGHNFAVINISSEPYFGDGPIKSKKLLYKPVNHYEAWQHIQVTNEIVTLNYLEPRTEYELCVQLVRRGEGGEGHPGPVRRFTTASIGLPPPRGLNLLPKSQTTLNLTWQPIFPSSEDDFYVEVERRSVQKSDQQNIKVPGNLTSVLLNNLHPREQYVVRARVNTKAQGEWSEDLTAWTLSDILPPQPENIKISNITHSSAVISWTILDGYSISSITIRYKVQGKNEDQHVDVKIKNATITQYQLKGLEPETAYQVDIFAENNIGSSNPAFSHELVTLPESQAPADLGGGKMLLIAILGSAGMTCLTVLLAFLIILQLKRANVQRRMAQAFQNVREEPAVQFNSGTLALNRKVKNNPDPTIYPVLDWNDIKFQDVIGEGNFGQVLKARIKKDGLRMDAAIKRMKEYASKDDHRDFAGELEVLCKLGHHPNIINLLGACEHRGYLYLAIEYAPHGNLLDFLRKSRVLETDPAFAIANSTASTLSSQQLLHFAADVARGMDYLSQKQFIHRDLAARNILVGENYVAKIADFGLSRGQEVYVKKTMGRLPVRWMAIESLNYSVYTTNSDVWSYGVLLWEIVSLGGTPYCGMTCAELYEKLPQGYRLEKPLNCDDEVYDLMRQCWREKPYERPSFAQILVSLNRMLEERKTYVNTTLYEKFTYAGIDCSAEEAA

Regarding `CCN(CC)CCCNc1ncc2c(-c3ccc(NC(=O)Nc4cc(C(F)(F)F)ccc4F)cc3)nn(C)c2n1` [Example 88, 1-(2-Fluoro-5-trifluoromethyl-phenyl)-3-{4-[1-methyl-6-(3-diethylamino-propylamino)-1H-pyrazolo[3,4-d]pyrimidin-3-yl]-phenyl} urea], the IC50 in test [1] was not above 0.0398 µM; in test [2], not below 0.3 µM.
Consider `CN1CCCC1CCNc1ncc2c(-c3ccc(NC(=O)Nc4cc(C(F)(F)F)ccc4F)cc3)nn(C)c2n1` (stereo not shown) [Example 89, 1-(2-Fluoro-5-trifluoromethyl-phenyl)-3-{4-[1-methyl-6-[2-(1-methyl-pyrrolidin-2-yl)-ethylamino]-1H-pyrazolo[3,4-d]pyrimidin-3-yl]-phenyl} urea], for which the IC50 is not above 0.0398 µM in test [1] and not below 0.3 µM in test [2].
For the compound `Cn1nc(-c2ccc(NC(=O)Nc3cc(C(F)(F)F)ccc3F)cc2)c2cnc(NCCCCNS(C)(=O)=O)nc21` [Example 97, N-[4-(3-{4-[3-(2-Fluoro-5-trifluoromethyl-phenyl)-ureido]-phenyl} -1-methyl-1H-pyrazolo[3,4-d]pyrimidin-6-ylamino)-butyl]-methanesulfonamide], the figures for the IC50 (at GST-VEGFR2; in test [1]; in test [3]) were more than 10 µM, 0.0398 to 0.1 µM and 1 to 10 µM, respectively.
In the same order, the values of `CC(=O)NCCNc1ncc2c(-c3ccc(NC(=O)Nc4cc(C(F)(F)F)ccc4F)cc3)nn(C)c2n1` [Example 98] are 1 to 10 µM, not above 0.0398 µM and more than 10 µM.
In the same order, the values of `Cn1cccc1CCNc1ncc2c(-c3ccc(NC(=O)Nc4cc(C(F)(F)F)ccc4F)cc3)nn(C)c2n1` [Example 101, 1-(2-Fluoro-5-trifluoromethyl-phenyl)-3-{4-[1-methyl-6-(2-[1-methyl-1H-pyrrol-2-yl]-ethylamino)-1H-pyrazolo[3,4-d]pyrimidin-3-yl]-phenyl} urea] are 1 to 10 µM, not above 0.0398 µM and 1 to 10 µM.
In the same order, the values of `Cn1nc(-c2ccc(NS(=O)(=O)c3cccc(Cl)c3Cl)cc2)c2cnc(NCCN3CCNC3=O)nc21` [Example 109, 2,3-Dichloro-N-(4-{1-methyl-6-[2-(2-oxo-imidazolidin-1-yl)-ethylamino]-1H-pyrazolo[3,4-d]pyrimidin-3-yl]-phenyl}-benzenesulfonamide] are 1 to 10 µM, more than 10 µM and 0.1 to 1 µM.
For `Cn1nc(-c2ccc(NS(=O)(=O)c3cccc(Cl)c3Cl)cc2)c2cnc(NCCCO)nc21` [Example 112, 2,3-Dichloro-N-{4-[1-methyl-6-(3-hydroxy-propylamino)-1H-pyrazolo[3,4-d]pyrimidin-3-yl]-phenyl}-benzenesulfonamide], the IC50 at GST-VEGFR2 was 1 to 10 µM; in test [1] it was more than 10 µM; in test [3], 1 to 10 µM.
For `Cn1nc(-c2ccc(NS(=O)(=O)c3cccc(Cl)c3Cl)cc2)c2cnc(NCCCCO)nc21` [Example 113, 2,3-Dichloro-N-{4-[1-methyl-6-(4-hydroxy-butylamino)-1H-pyrazolo[3,4-d]pyrimidin-3-yl]-phenyl}-benzenesulfonamide], the IC50 (on GST-VEGFR2; in test [1]; in test [3]) was 1 to 10 µM in each case.
On to `Cn1nc(-c2ccc(NS(=O)(=O)c3cccc(Cl)c3Cl)cc2)c2cnc(NCCCCCO)nc21` [Example 114, 2,3-Dichloro-N-{4-[1-methyl-6-(5-hydroxy-pentylamino)-1H-pyrazolo[3,4-d]pyrimidin-3-yl]-phenyl}-benzenesulfonamide], for which the IC50 (at GST-VEGFR2; in test [1]; in test [3]) was 1 to 10 µM throughout.
As for `Cn1nc(-c2ccc(NS(=O)(=O)c3cccc(Cl)c3Cl)cc2)c2cnc(NCCCCNS(C)(=O)=O)nc21` [Example 122, 2,3-Dichloro-N-{4-[1-methyl-6-(4-methanesulfonylamino-butylamino)-1H-pyrazolo[3,4-d]pyrimidin-3-yl]-phenyl}-benzenesulfonamide], the figures for the IC50 (at GST-VEGFR2; in test [1]; in test [3]) were more than 10 µM, 1 to 10 µM and 1 to 10 µM, respectively.
For `Cn1nc(-c2ccc(NC(=O)Nc3cc(C(F)(F)F)ccc3F)c(F)c2)c2cnc(NCCCn3ccnc3)nc21` [Example 132, 1-(2-Fluoro-5-trifluoromethyl-phenyl)-3-{2-fluoro-4-[1-methyl-6-(3-(imidazol-1-ylpropylamino)-1H-pyrazolo[3,4-d]pyrimidin-3-yl)-phenyl]} urea], the IC50 was 1 to 10 µM at GST-VEGFR2, not above 0.0398 µM in test [1] and 1 to 10 µM in test [3].
With `CC1CCCCN1CCCNc1ncc2c(-c3ccc(NC(=O)Nc4cc(C(C)(C)C)on4)c(F)c3)nn(C)c2n1` (stereo not shown) [Example 135], the IC50 in test [1] was not above 0.0398 µM; in test [2] it was not below 0.3 µM.
For the compound `CCN(CC)CCCNc1ncc2c(-c3ccc(NC(=O)Nc4cc(C(C)(C)C)on4)c(F)c3)nn(C)c2n1` [Example 136], the IC50 in test [1] was not above 0.0398 µM; in test [2], not below 0.3 µM.
As to `CN1CCCC1CCNc1ncc2c(-c3ccc(NC(=O)Nc4cc(C(C)(C)C)on4)c(F)c3)nn(C)c2n1` (stereo not shown) [Example 137], the IC50 in test [1] is not above 0.0398 µM; in test [2], not below 0.3 µM.
For `Cn1nc(-c2ccc(NC(=O)Nc3cc(C(F)(F)F)ccc3F)cc2)c2cnc(NCc3ccncc3)nc21` [Example 143, 1-(2-Fluoro-5-trifluoromethyl-phenyl)-3-{4-[(1-methyl-6-(pyridin-4-ylmethyl)-amino)-1H-pyrazolo[3,4-d]pyrimidin-3-yl]-phenyl} urea], the IC50 on GST-VEGFR2 is 1 to 10 µM; in test [1] it was 0.1 to 1 µM; in test [3], more than 10 µM.
